# Laboratory results as given in patent US5063225A, “Benzothiazepines” (Roussel Uclaf, priority 1989, dated 1991).
# Where a name gives a salt, the structure may show the parent alone. Read-outs that look alike come from different tables or passages of the source.
# How the values were obtained:
# [1] = tested on: ventricular extrasystoles initiated by aconitine in rats; assay: Anti-arhythmic action in the rat (aconitine-induced ventricular extrasystoles); assay type: in vivo; details: relative to control animals
# Method: 1) Anti-arhythmic action in the rat
# Male rats weighing 300-350 g, anaesthetized by intraperitoneal route using 1.20 g/kg of urethane, were tracheotomized and subjected to artificial respiration (40-50 insufflations of 3 ml/minute). Needles were implanted subcutaneously to record the electro-cardiogram of the rats on the signal in the DII derivation. The products under test were administered by intravenous route or by oral route. After five minutes in the case of administration intravenously and one hour in the case of oral administration, the jugular vein of the rats was perfused with 10 micrograms/min. under 0.2 ml of an aconitine solution. The time taken for the first ventricular extrasystoles to appear was noted and the amount of aconitine perfused was calculated, then expressed as a function of the body weight of the animal.
# The percentage of increase of the aconitine dose necessary to initiate the ventricular extrasystoles after treatment was calculated relative to the control animals.
# [2] = tested on: mouse; assay: Study of the acute toxicity; assay type: in vivo; details: single administration
# Method: 4) Study of the Acute Toxicity
# The lethal doses LD of the various compounds under test were evaluated after a single administration intraperitoneally or orally to a mouse.
# [3] = tested on: blood-platelets (rabbit PRP); assay: Blood-platelet aggregation, in vitro, on plasma rich in blood-platelets (PRP); assay type: cell-based; details: Oryctolagus cuniculus, 2 min, 2 minutes incubation, read-out: IC50 (concentration inhibiting the aggregation by 50%)
# From the text: 2) Test for the Activity of Anti-Aggregation of Blood-Platelets. Blood-Platelet Aggregation, In Vitro, on Plasma Rich in Blood-Platelets (PRP)
# Measurement of blood-platelet aggregation was made by the turbidimetric method of Born et al 1963, J. Physiol., Vol. 168, p. 178. Rabbit's blood was removed on Na citrate at 3.2% by cardiac puncture and the plasma rich in blood-platelets was obtained by centrifuging and adjustment of the number of blood-platelets to 300,000 per microliter. The aggregation was induced by collagen (40 micrograms per ml of PRP) or PAF acether (0.05 micromoles per liter of PRP). The compounds under test were incubated at different concentrations in the PRP 2 minutes before the aggregating agent. The results were expressed in IC50 (concentration inhibiting the aggregation by 50% relative to the control curves).
# [4] = tested on: broncho-constriction induced by serotonin; assay: Anti-serotoninergic activity: broncho-constriction in a guinea-pig induced by serotonin; assay type: in vivo; details: 1 mg/kg injected via jugular vein one minute before serotonin (3 to 5 micrograms/kg IV)
# Method: 3) Test for Anti-Serotoninergic Activity Broncho-constriction in a guinea-pig induced by serotonin. The pulmonary resistance to insufflation was measured by the technique of "overflow" according to KONZETT et al [Arch. Ex. Pathol. Pharmakol, 1940, Vol. 195, p. 71]. The guinea-pigs were anaesthetized with urethane and the jugular vein was catherized to inject the products, and the trachea was catheterized to insert artificial ventilation. Broncho-constriction was induced by a dose of 3 to 5 micrograms/kg of serotonin injected intravenously and the antagonists were injected one minute before the induction of the broncho-spasm. It can be noted from the results of the table below that the products of the present Application have a strong anti-serontoninergic activity.
# [5] = IV, 5 mg/kg, five minutes before aconitine
# [6] = oral (O), 25 mg/kg, one hour before aconitine
# [7] = induction by PAF-ACETHER (0.05 micromoles per liter of PRP)
# [8] = induction by collagen (40 micrograms per ml of PRP)
SMILES,"Percentage of increase of the aconitine dose for initiating the extrasystoles [1, 5]","Percentage of increase of the aconitine dose for initiating the extrasystoles [1, 6]",LD0 (maximum dose which did not cause any deaths over 8 days) ([2]; IP),LD0 (maximum dose which did not cause any deaths over 8 days) ([2]; oral (O)),"IC50 [3, 7]","IC50 [3, 8]",Percentage of inhibition of the broncho-constriction [4]
"COc1ccc(C2CSc3ccccc3N(CCCN(C)C)C2=O)cc1 (stereo not shown) [Example 6, 2,3-dihydro-5-[3-(dimethylamino)-propyl]-3-(4-methoxyphenyl)-1,5-benzothiazepin-4(5H)-one (E)-butenedioate]",142%,> 188%,100 mg/kg,100 mg/kg,–,–,–
"COc1ccc(C2CSc3ccccc3N(CCN(C(C)C)C(C)C)C2=O)cc1 (racemic) [Example 9, (±)-5-[2-[[bis(1-methylethyl)]-amino]-ethyl]-2,3-dihydro-3-(4-methoxyphenyl)-1,5-benzothiazepin-4(5H)-one hydrochloride]",–,–,–,–,58 µM,66 µM,–
"CN(C)CCN1C(=O)C(c2ccc(Cl)cc2)CSc2ccccc21.Cl (stereo not shown) [Example 11, 3-(4-chloro-phenyl)-2,3-dihydro-5-[2-(dimethylamino)-ethyl]-1,5-benzothiazepin-4(5H)-one hydrochloride]",32%,135%,80 mg/kg,100 mg/kg,40 µM,8 µM,82%
"COc1ccccc1C1CSc2ccccc2N(CCN(C)C)C1=O.Cl (stereo not shown) [Example 12, 2,3-dihydro-5-[2-(dimethylamino)-ethyl]-3-(2-methoxy-phenyl)-1,5-benzothiazepin-4(5H)-one hydrochloride]",–,–,100 mg/kg,> 200 mg/kg,9 µM,56 µM,64%
"COc1ccc(C2CSc3ccccc3N(CCN(C)C)C2=O)cc1 (stereo not shown) [Example 13, 2,3-dihydro-5-8 2-(dimethylamino)-ethyl]-3-(4-methoxy phenyl)-1,5-benzothiazepin-4(5H)-one (E)-2-butenedioate]",24%,35%,80 mg/kg,> 200 mg/kg,–,–,87%
"COc1ccc(C2CSc3ccccc3N(CCN3CCN(C)CC3)C2=O)cc1 (stereo not shown) [Example 7, 2,3-dihydro-3-(4-methoxyphenyl)-5-[2-(4-methyl-1-piperazinyl)-ethyl]-1,5-benzothiazepin-4(5H)-one dichlorhydrate]",25%,129%,100 mg/kg,100 mg/kg,–,–,–
"CCN(CC)CCN1C(=O)C(c2ccc(OC)cc2)CSc2ccccc21.O=C(O)C(=O)O (stereo not shown) [Example 5, 5-[2-(diethylamino)-ethyl]-2,3-dihydro-3-(4-methoxyphenyl)-1,5-benzothiazepin-4(5H)-one ethanedioate]",–,–,–,–,–,–,87%
"COc1ccc(C2CSc3ccccc3N(CCN3CCCC3)C2=O)cc1 (stereo not shown) [Example 1, 2,3-dihydro-3-(4-methoxy-phenyl)-5-[2-(1-pyrrolidinyl)-ethyl]-1,5-benzothiazepin-4(5H)-one (Z)-2-butenedioate]",–,–,–,–,78 µM,74 µM,79%
